Among the data in patent publication US11446287B2, “Compounds and methods for EP300 or CBP modulation and indications therefor” (Opna Immuno-Oncology SA, priority 2019, dated 2022) are IC50 values, retold here.

Broadly, the IC50 is the midpoint of a concentration-inhibition curve.

This test deals with T1, Recombinant human CBP containing the bromodomain (CBP-BD (1043-1159)) (Homo sapiens, UniProt Q92793).
T1 construct: Recombinant human CBP bromodomain (CBP-BD (1043-1159)); made in house; host or cells: E. coli BL21-CodonPlus (DE3), modified pET vector
T1 sequence (Q92793 1081-1197): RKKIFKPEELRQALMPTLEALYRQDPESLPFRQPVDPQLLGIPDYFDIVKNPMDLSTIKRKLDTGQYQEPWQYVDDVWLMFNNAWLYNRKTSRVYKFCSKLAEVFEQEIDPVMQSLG
In words: CBP Alphascreen binding assay. Conditions: read-out: CREBBP (CBP) IC50. Summed up: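 Buffer: 50 mM HEPES pH 7.5, 50 mM NaCl, 0.01% BSA, 0.01% Triton X-100, 2 mM DTT. The signal was normalised to plate controls and fitted with a four-parameter curve to give IC50.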
`Cc1noc(C)c1-c1cnc2c(c1)c(-c1ccc(C(=O)O)cc1OC(F)(F)F)cn2-c1cnccc1C#N` [P-0204, 4-(1-(4-cyanopyridin-3-yl)-5-(3,5-dimethylisoxazol-4-yl)-1H-pyrrolo[2,3-b]pyridin-3-yl)-3-(trifluoromethoxy)benzoic acid]: the IC50 was in the range of 0.1 to 1000 nM. As for `CCOc1cc(C(=O)O)cc(F)c1-n1cc(-c2ccccc2)c2ncc(-c3c(C)noc3C)cc21` [P-0205, 4-(6-(3,5-dimethylisoxazol-4-yl)-3-phenyl-1H-pyrrolo[3,2-b]pyridin-1-yl)-3-ethoxy-5-fluorobenzoic acid], the IC50 fell in the range of 0.1 to 1000 nM. As for `CCOc1cccc(C#N)c1-n1cc(-c2ccccc2)c2ncc(-c3c(C)noc3C)cc21` [P-0206, 2-(6-(3,5-dimethylisoxazol-4-yl)-3-phenyl-1H-pyrrolo[3,2-b]pyridin-1-yl)-3-ethoxybenzonitrile], the IC50 was in the range of 0.1 to 1000 nM. Take `Cc1noc(C)c1-c1cnc2c(-c3ccccc3)cn(-c3c(Cl)cccc3C#N)c2c1` [P-0207, 3-chloro-2-(6-(3,5-dimethylisoxazol-4-yl)-3-phenyl-1H-pyrrolo[3,2-b]pyridin-1-yl)benzonitrile]: the IC50 is 1000 to 8000 nM.

For `CCOc1cc(C(=O)O)cc(OCC)c1-n1cc(C2=CCC(F)(F)CC2)c2ncc(-c3c(C)noc3C)cc21` [P-0208, 4-(3-(4,4-difluorocyclohex-1-en-1-yl)-6-(3,5-dimethylisoxazol-4-yl)-1H-pyrrolo[3,2-b]pyridin-1-yl)-3,5-diethoxybenzoic acid], the concentration for half-maximal inhibition (IC50) was 0.1 to 1000 nM. Take `CCOc1cc(C(=O)O)cc(OCC)c1-n1cc(-c2ccc(F)c(Cl)c2)c2ncc(-c3c(C)noc3C)cc21` [P-0209, 4-(3-(3-chloro-4-fluorophenyl)-6-(3,5-dimethylisoxazol-4-yl)-1H-pyrrolo[3,2-b]pyridin-1-yl)-3,5-diethoxybenzoic acid]: the IC50 fell in the range of 0.1 to 1000 nM. Consider `CCOc1cc(C(=O)O)cc(OCC)c1-n1cc(CC2CCC2)c2ncc(-c3c(COC)noc3C)cc21` [P-0210, 4-(3-(cyclobutylmethyl)-6-(3-(methoxymethyl)-5-methylisoxazol-4-yl)-1H-pyrrolo[3,2-b]pyridin-1-yl)-3,5-diethoxybenzoic acid], for which the IC50 was in the range of 0.1 to 1000 nM. In the case of `Cc1cnccc1-n1cc(-c2ccc(C(=O)O)cc2OC(F)(F)F)c2cc(-c3c(C)noc3C)cnc21` [P-0211, 4-(5-(3,5-dimethylisoxazol-4-yl)-1-(3-methylpyridin-4-yl)-1H-pyrrolo[2,3-b]pyridin-3-yl)-3-(trifluoromethoxy)benzoic acid] it was 0.1 to 1000 nM; in that of `Cc1noc(C)c1-c1cnc2c(c1)c(-c1ccc(C(=O)O)cc1OC(F)(F)F)cn2C1CCS(=O)(=O)CC1` [P-0212, 4-(5-(3,5-dimethylisoxazol-4-yl)-1-(1,1-dioxidotetrahydro-2H-thiopyran-4-yl)-1H-pyrrolo[2,3-b]pyridin-3-yl)-3-(trifluoromethoxy)benzoic acid], 0.1 to 1000 nM. Regarding `Cc1noc(C)c1-c1cnc2c(c1)c(-c1ccc(C(=O)O)cc1OC(C)C)cn2C(C1CC1)C1CC1` [P-0213, 4-(1-(dicyclopropylmethyl)-5-(3,5-dimethylisoxazol-4-yl)-1H-pyrrolo[2,3-b]pyridin-3-yl)-3-isopropoxybenzoic acid], the IC50 fell in the range of 0.1 to 1000 nM.

In the case of `Cc1noc(C)c1-c1cnc2c(c1)c(-c1ccc(C(=O)O)cc1OCC(F)(F)F)cn2C(C1CC1)C1CC1` [P-0214, 4-(1-(dicyclopropylmethyl)-5-(3,5-dimethylisoxazol-4-yl)-1H-pyrrolo[2,3-b]pyridin-3-yl)-3-(2,2,2-trifluoroethoxy)benzoic acid], the IC50 is 0.1 to 1000 nM.

`Cc1noc(C)c1-c1cnc2c(c1)c(-c1ccc(C(=O)O)cc1OC(F)(F)F)cn2-c1ncccc1C#N` [P-0215, 4-(1-(3-cyanopyridin-2-yl)-5-(3,5-dimethylisoxazol-4-yl)-1H-pyrrolo[2,3-b]pyridin-3-yl)-3-(trifluoromethoxy)benzoic acid]: the half-maximal inhibitory concentration (IC50) lay within 0.1 to 1000 nM. Take `Cc1noc(C)c1-c1cnc2c(c1)c(-c1ccc(C(=O)O)cc1OC(F)(F)F)cn2-c1ncccc1C#CC1CC1` [P-0216, 4-(1-(3-(cyclopropylethynyl)pyridin-2-yl)-5-(3,5-dimethylisoxazol-4-yl)-1H-pyrrolo[2,3-b]pyridin-3-yl)-3-(trifluoromethoxy)benzoic acid]: the IC50 lay in the range of 0.1 to 1000 nM. On to `CCOc1cc(C(=O)O)cc(OCC)c1-n1cc(-c2ccc(C#N)cc2F)c2ncc(-c3c(C)noc3C)cc21` [P-0217, 4-(3-(4-cyano-2-fluorophenyl)-6-(3,5-dimethylisoxazol-4-yl)-1H-pyrrolo[3,2-b]pyridin-1-yl)-3,5-diethoxybenzoic acid], for which the concentration for half-maximal inhibition (IC50) fell in the range of 0.1 to 1000 nM. In the case of `CCOc1cc(C(=O)O)cc(OCC)c1-n1cc(-c2ccc(C(=O)NC3CC3)cc2)c2ncc(-c3c(C)noc3C)cc21` [P-0218, 4-(3-(4-(cyclopropylcarbamoyl)phenyl)-6-(3,5-dimethylisoxazol-4-yl)-1H-pyrrolo[3,2-b]pyridin-1-yl)-3,5-diethoxybenzoic acid], the concentration for half-maximal inhibition (IC50) was 0.1 to 1000 nM. As to `COC(=O)c1cc(OC)c(-n2cc(-c3ccccc3)c3ncc(-c4c(C)noc4C)cc32)c(OC)c1` [P-0219, methyl 4-(6-(3,5-dimethylisoxazol-4-yl)-3-phenyl-1H-pyrrolo[3,2-b]pyridin-1-yl)-3,5-dimethoxybenzoate], the IC50 fell in the range of 0.1 to 1000 nM. Take `COc1cc(C(=O)O)cc(OC)c1-n1cc(-c2ccccc2)c2ncc(-c3c(C)noc3C)cc21` [P-0220, 4-(6-(3,5-dimethylisoxazol-4-yl)-3-phenyl-1H-pyrrolo[3,2-b]pyridin-1-yl)-3,5-dimethoxybenzoic acid]: the IC50 fell in the range of 0.1 to 1000 nM. In the case of `COc1cccc(OC)c1-n1cc(-c2ccccc2)c2ncc(-c3c(C)noc3C)cc21` [P-0221, 4-(1-(2,6-dimethoxyphenyl)-3-phenyl-1H-pyrrolo[3,2-b]pyridin-6-yl)-3,5-dimethylisoxazole], the concentration for half-maximal inhibition (IC50) fell in the range of 1000 to 8000 nM. Next, `CCOc1cc(C(=O)O)cc(OCC)c1-n1cc(-c2ccnc(F)c2)c2ncc(-c3c(C)noc3C)cc21` [P-0222, 4-(6-(3,5-dimethylisoxazol-4-yl)-3-(2-fluoropyridin-4-yl)-1H-pyrrolo[3,2-b]pyridin-1-yl)-3,5-diethoxybenzoic acid]: 0.1 to 1000 nM; `Cc1noc(C)c1-c1cnc2c(c1)c(-c1ccc(C(=O)O)cc1OC(F)(F)F)cn2-c1ccccc1F` [P-0223, 4-(5-(3,5-dimethylisoxazol-4-yl)-1-(2-fluorophenyl)-1H-pyrrolo[2,3-b]pyridin-3-yl)-3-(trifluoromethoxy)benzoic acid]: 0.1 to 1000 nM. In the case of `CCOc1cccc(Cl)c1-n1cc(-c2ccccc2)c2ncc(-c3c(C)noc3C)cc21` [P-0224, 4-(1-(2-chloro-6-ethoxyphenyl)-3-phenyl-1H-pyrrolo[3,2-b]pyridin-6-yl)-3,5-dimethylisoxazole], the concentration for half-maximal inhibition (IC50) was 1000 to 8000 nM.

On to `CCOc1ccc(C(=O)O)cc1-n1cc(-c2ccccc2)c2ncc(-c3c(C)noc3C)cc21` [P-0225, 3-(6-(3,5-dimethylisoxazol-4-yl)-3-phenyl-1H-pyrrolo[3,2-b]pyridin-1-yl)-4-ethoxybenzoic acid], for which the concentration for half-maximal inhibition (IC50) lay within 0.1 to 1000 nM. For the compound `Cc1noc(C)c1-c1cnc2c(c1)c(-c1ccc(C(=O)O)cc1OC(F)(F)F)cn2C1CCOCC1` [P-0226, 4-(5-(3,5-dimethylisoxazol-4-yl)-1-(tetrahydro-2H-pyran-4-yl)-1H-pyrrolo[2,3-b]pyridin-3-yl)-3-(trifluoromethoxy)benzoic acid], the IC50 was 0.1 to 1000 nM.
